{"source": "paper PMC6874683", "about": "“Pyrrothiogatain acts as an inhibitor of GATA family proteins and inhibits Th2 cell differentiation in vitro” (Scientific Reports, 2019)", "key": {"[1]": {"molecular_target": "T1, GATA5 (Homo sapiens, UniProt Q9BWX5)", "T1 construct": "we tried to synthesize their full-length proteins using the cell-free system; made in house; host or cells: wheat cell-free protein synthesis system (WEPRO1240 kit)", "T1 sequence (Q9BWX5 whole entry, species assumed)": "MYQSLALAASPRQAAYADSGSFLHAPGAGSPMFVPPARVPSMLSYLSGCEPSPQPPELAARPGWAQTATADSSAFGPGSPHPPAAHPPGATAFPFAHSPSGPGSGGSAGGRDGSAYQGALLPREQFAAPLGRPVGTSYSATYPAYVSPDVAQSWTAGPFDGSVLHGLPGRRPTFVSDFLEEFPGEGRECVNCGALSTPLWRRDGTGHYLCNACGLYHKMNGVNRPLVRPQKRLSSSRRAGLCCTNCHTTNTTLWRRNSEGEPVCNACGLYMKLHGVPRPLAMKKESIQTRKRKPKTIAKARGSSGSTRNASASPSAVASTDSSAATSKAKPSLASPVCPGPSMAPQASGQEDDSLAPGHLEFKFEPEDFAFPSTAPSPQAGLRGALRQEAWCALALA", "test": "AlphaScreen DNA-binding assay, GATA5", "details": "pyrrothiogatain 0 to 200 µM", "experimental": "(§1) For the protein-DNA binding assay on a 384-well AlphaPlate (Perkin Elmer), 10 μL of bait protein mixture containing 1 µL FLAG-tagged protein in AlphaScreen Buffer (100 mM Tris-HCl (pH 8.0), 150 mM NaCl, 0.1% Tween 20, and 1 mg/mL BSA) and 5 µL biotinylated oligonucleotide (0–10 µM final concentration) in AlphaScreen Buffer were dispended into the AlphaPlate. Then, the plate was incubated at 26 °C for 1 h. After incubation, 10 μL of the detection mixture containing 0.4 µg/mL Anti-DYKDDDDK antibody (1E6, Wako), 0.1 μL streptavidin-conjugated AlphaScreen donor beads, and 0.1 μL protein A-conjugated AlphaScreen acceptor beads in AlphaScreen Buffer was mixed and incubated at 26 °C for 1 h, and then, the AlphaScreen signal was detected using an EnVision device with the AlphaScreen signal detection program (PerkinElmer).\n(§2) For the AlphaScreen-based chemical library screening, we used a diverse set of 9,600 synthesized chemicals established by the Drug Discovery Initiative (The University of Tokyo, Tokyo, Japan). All chemical compounds (10 mM) were dissolved in DMSO, and were pre-dispensed into a 384-well Alphaplate (250 nL/well). […] The AlphaScreen signal was detected using an EnVision device with the AlphaScreen signal detection program (PerkinElmer). […]"}, "[2]": {"molecular_target": "T2, GATA4 (Homo sapiens, UniProt P43694)", "T2 construct": "we tried to synthesize their full-length proteins using the cell-free system; made in house; host or cells: wheat cell-free protein synthesis system (WEPRO1240 kit)", "T2 sequence (P43694 whole entry, species assumed)": "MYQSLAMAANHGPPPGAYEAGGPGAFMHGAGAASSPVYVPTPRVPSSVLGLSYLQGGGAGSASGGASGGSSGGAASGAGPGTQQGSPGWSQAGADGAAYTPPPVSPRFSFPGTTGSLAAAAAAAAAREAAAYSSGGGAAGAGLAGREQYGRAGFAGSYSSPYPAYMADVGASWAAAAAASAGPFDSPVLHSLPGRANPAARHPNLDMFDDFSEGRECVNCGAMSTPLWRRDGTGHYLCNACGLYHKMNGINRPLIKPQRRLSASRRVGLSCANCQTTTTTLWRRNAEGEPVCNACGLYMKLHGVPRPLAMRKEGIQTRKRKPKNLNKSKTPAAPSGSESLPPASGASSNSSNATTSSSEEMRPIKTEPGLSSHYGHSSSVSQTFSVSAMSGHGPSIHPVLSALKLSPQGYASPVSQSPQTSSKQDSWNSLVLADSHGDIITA", "test": "AlphaScreen DNA-binding assay, GATA4", "details": "pyrrothiogatain 0 to 200 µM", "experimental": "as §1, §2"}, "[3]": {"system": "cytokine production", "test": "ELISA of cytokine production, total CD4+ T cells under IL-2 conditions", "format": "cell-based, mouse", "details": "30 µM, five days", "experimental": "C57BL/6 mice were purchased from Clea (Clea Japan, Inc., Tokyo, Japan). Total CD4^+ T cells isolated from mouse spleen were prepared using a FITC anti-mouse CD4 antibody (Cat#100510, RM4–5, BioLegend) and anti-FITC-microbeads (Cat#130-097-050, Miltenyi Biotec). Naive CD4^+ T cells (CD44^low, CD62L^high) were prepared using a MojoSort Mouse CD4 T cell Isolation Kit (Cat#480033), BioLegend). Biotinylated anti-CD44 (Cat#103004, IM7) and anti-CD25 antibodies (Cat#102004, PC61) were purchased from BioLegend. […]\nThe CD4^+ T cells cultured for five days were stimulated using an immobilized anti-TCR-β mAb (3 µg/mL, H57–597, BioLegend) for 16 h, and the culture supernatants were recovered. The amount of cytokines in the recovered supernatants was determined with ELISA using the following antibodies and reagents: anti-IL-4 mAb (Cat#554387, BD Biosciences), biotin-anti-IL-4 mAb (Cat#554390, BD Biosciences), anti-IL-5 mAb (Cat#554393, BD Biosciences), biotin-anti-IL-5 mAb (Cat#554397, BD Biosciences), anti-IFN-γ mAb (Cat#551216, BD Biosciences), biotin-anti-IFN-γ mAb (Cat#554410, BD Biosciences), anti-IL-2 mAb (Cat#554424, BD Biosciences), biotin-anti-IL-2 mAb (Cat#554426, BD Biosciences), streptavidin horseradish peroxidase (Cat#434323, Invitrogen), and TMB peroxidase EIA substrate kit (Cat#1721066, BioRad). […]"}, "[4]": {"molecular_target": "T3, GATA2 (Homo sapiens, UniProt P23769)", "T3 construct": "we tried to synthesize their full-length proteins using the cell-free system; made in house; host or cells: wheat cell-free protein synthesis system (WEPRO1240 kit)", "T3 sequence (P23769 1-480)": "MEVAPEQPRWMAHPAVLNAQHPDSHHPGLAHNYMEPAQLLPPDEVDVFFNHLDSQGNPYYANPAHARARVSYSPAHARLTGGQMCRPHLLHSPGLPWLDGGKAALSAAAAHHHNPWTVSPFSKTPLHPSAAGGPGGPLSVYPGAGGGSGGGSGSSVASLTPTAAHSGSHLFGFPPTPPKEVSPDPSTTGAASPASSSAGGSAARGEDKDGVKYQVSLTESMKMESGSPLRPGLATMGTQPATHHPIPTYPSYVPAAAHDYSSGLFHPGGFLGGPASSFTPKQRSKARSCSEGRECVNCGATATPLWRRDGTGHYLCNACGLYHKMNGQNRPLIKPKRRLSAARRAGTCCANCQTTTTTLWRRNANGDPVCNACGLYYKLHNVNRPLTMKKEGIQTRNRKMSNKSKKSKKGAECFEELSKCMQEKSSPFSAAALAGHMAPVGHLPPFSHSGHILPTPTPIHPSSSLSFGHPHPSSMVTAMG", "test": "AlphaScreen DNA-binding assay, GATA2", "details": "pyrrothiogatain 0 to 200 µM", "experimental": "as §1, §2"}}, "note": "Values joined by “and” are separate entries in the source; they are usually repeats but may differ in a detail not shown here. Identical values can stand only once.", "data": [{"smiles": "Cc1ccc(C)n1-c1ccsc1C(=O)O", "note": "[Pyrrothiogatain, 3-(2,5-dimethyl-1H-pyrrol-1-yl)thiophene-2-carboxylic acid]", "values": [{"measurement": "IC50", "setting": "[1]", "result": "~50 µM and 49.5 µM"}, {"measurement": "IC50", "setting": "[2]", "result": "~50 µM and 48 µM"}, {"measurement": "Production of IFN-γ (ELISA)", "setting": "[3]", "result": "Increased"}, {"measurement": "Production of IL-4, IL-5, IL-10, and IL-13 (ELISA)", "setting": "[3]", "result": "decreased"}, {"measurement": "IC50", "setting": "[4]", "result": "~50 µM and 45 µM"}]}]}
